Drawing on ChEMBL document CHEMBL1759924, “Natural products-based insecticidal agents 9. Design, semisynthesis and insecticidal activity of 28-acyloxy derivatives of toosendanin against Mythimna separata Walker in vivo” (2011), this text covers Activity for 13 compounds.

In assay [1] the test system is Mythimna separata. The experiment in a line: Insecticidal activity against Mythimna separata Walker assessed as mortality at 1 mg/mL by leaf dipping method. It counts as functional, organism-based. The settings on record: TDE = time-dependent effect.
Assay [2] deals with Mythimna separata. Kind of assay: Insecticidal activity against Mythimna separata Walker assessed as mortality rate at 1 mg/mL after 35 days by leaf dipping method. It counts as functional.
Assay [3] has as its system Mythimna separata. The experiment in a line: Insecticidal activity against Mythimna separata Walker assessed as mortality rate at 1 mg/mL after 10 days by leaf dipping method. It counts as functional.
Assay [4] has as its system Mythimna separata. Kind of assay: Insecticidal activity against Mythimna separata assessed as slim and wrinkled body during larval period upto 48 hrs. It is filed as functional, organism-based.
Assay [5] concerns Mythimna separata. Kind of assay: Insecticidal activity against Mythimna separata larvae assessed as malformed pupae during pupation period at day 19. It counts as functional, organism-based.
The test system of assay [6] is Mythimna separata. Kind of assay: Insecticidal activity against Mythimna separata Walker assessed as mortality rate at 1 mg/mL after 20 days by leaf dipping method. It counts as functional.
Assay [7] relates to Mythimna separata. Kind of assay: Insecticidal activity against Mythimna separata assessed as malformed moths with imperfect wings at day 27. It is filed as functional, organism-based.

Activity calls are given as the source filed them. The calls are words filed in the database; no cut-off is given here.

As to `CC(=O)O[C@H]1OC[C@@]23[C@H]4C(=O)[C@H](OC(C)=O)[C@@]5(C)C(c6ccoc6)C[C@H]6O[C@]65[C@]4(C)[C@H](O)C[C@H]2[C@]1(C)[C@H](OC(C)=O)C[C@@H]3O` (single isomer, unassigned), the Activity entry is “tde” in the assay with Mythimna separata [1], 50% in the assay on Mythimna separata [2], 24.1% in the assay with Mythimna separata [3] and 26.9% in the assay with Mythimna separata [6]. The outcome in the assay on Mythimna separata [4] and with Mythimna separata [5] was Active.
As for `CCC(=O)O[C@H]1OC[C@@]23[C@H]4C(=O)[C@H](OC(C)=O)[C@@]5(C)C(c6ccoc6)C[C@H]6O[C@]65[C@]4(C)[C@H](O)C[C@H]2[C@]1(C)[C@H](OC(C)=O)C[C@@H]3O` (single isomer, unassigned), the Activity result with Mythimna separata [1] was “tde”; in the assay with Mythimna separata [2], 53.9%; with Mythimna separata [3] it was 24.1%; in the assay with Mythimna separata [6] it was 30.8%. Further, in the assay with Mythimna separata [4], the outcome was Active.
Consider `CCCC(=O)O[C@H]1OC[C@@]23[C@H]4C(=O)[C@H](OC(C)=O)[C@@]5(C)C(c6ccoc6)C[C@H]6O[C@]65[C@]4(C)[C@H](O)C[C@H]2[C@]1(C)[C@H](OC(C)=O)C[C@@H]3O` (single isomer, unassigned), for which the Activity entry is “tde” in the assay with Mythimna separata [1], 73.1% with Mythimna separata [2], 31% in the assay with Mythimna separata [3] and 42.3% in the assay on Mythimna separata [6]. Also, in the assay with Mythimna separata [5], the outcome was Active.
Consider `CC(=O)O[C@@H]1C[C@H](O)[C@@]23CO[C@H](OC(=O)c4ccccc4)[C@]1(C)[C@@H]2C[C@@H](O)[C@]1(C)[C@@H]3C(=O)[C@H](OC(C)=O)[C@@]2(C)C(c3ccoc3)C[C@H]3O[C@@]312` (single isomer, unassigned), for which the Activity entry is “tde” with Mythimna separata [1], 46.2% in the assay on Mythimna separata [2], 20.7% in the assay with Mythimna separata [3] and 23.1% in the assay with Mythimna separata [6]. Further, the outcome in the assay with Mythimna separata [7] was Active.
Regarding `CC(=O)O[C@@H]1C[C@H](O)[C@@]23CO[C@H](OC(=O)c4ccc(Cl)cc4)[C@]1(C)[C@@H]2C[C@@H](O)[C@]1(C)[C@@H]3C(=O)[C@H](OC(C)=O)[C@@]2(C)C(c3ccoc3)C[C@H]3O[C@@]312` (single isomer, unassigned), the Activity result with Mythimna separata [1] was “tde”; in the assay on Mythimna separata [2], 50%; with Mythimna separata [3] it was 20.7%; in the assay on Mythimna separata [6], 26.9%. Further, the result in the assay with Mythimna separata [4] and in the assay on Mythimna separata [5] was Active.
Consider `CC(=O)O[C@@H]1C[C@H](O)[C@@]23CO[C@H](OC(=O)c4cccc(Cl)c4)[C@]1(C)[C@@H]2C[C@@H](O)[C@]1(C)[C@@H]3C(=O)[C@H](OC(C)=O)[C@@]2(C)C(c3ccoc3)C[C@H]3O[C@@]312` (single isomer, unassigned), for which the Activity entry with Mythimna separata [1] is “tde”; in the assay with Mythimna separata [2], 46.2%; in the assay on Mythimna separata [3], 27.6%; in the assay with Mythimna separata [6] it was 34.6%. In addition, the outcome in the assay on Mythimna separata [7] was Active.
`CC(=O)O[C@@H]1C[C@H](O)[C@@]23CO[C@H](OC(=O)c4ccccc4Cl)[C@]1(C)[C@@H]2C[C@@H](O)[C@]1(C)[C@@H]3C(=O)[C@H](OC(C)=O)[C@@]2(C)C(c3ccoc3)C[C@H]3O[C@@]312` (single isomer, unassigned): the Activity result is “tde” in the assay on Mythimna separata [1], 38.5% in the assay on Mythimna separata [2], 20.7% in the assay with Mythimna separata [3] and 23.1% in the assay on Mythimna separata [6]. For the same compound, the result in the assay on Mythimna separata [4] and in the assay on Mythimna separata [7] was Active.
Turning to `COc1ccc(C(=O)O[C@H]2OC[C@@]34[C@H]5C(=O)[C@H](OC(C)=O)[C@@]6(C)C(c7ccoc7)C[C@H]7O[C@]76[C@]5(C)[C@H](O)C[C@H]3[C@]2(C)[C@H](OC(C)=O)C[C@@H]4O)cc1` (single isomer, unassigned), the Activity result was “tde” in the assay with Mythimna separata [1], 42.3% in the assay on Mythimna separata [2], 20.7% in the assay on Mythimna separata [3] and 26.9% in the assay with Mythimna separata [6].
Turning to `CC(=O)O[C@@H]1C[C@H](O)[C@@]23CO[C@H](OC(=O)c4ccc([N+](=O)[O-])cc4)[C@]1(C)[C@@H]2C[C@@H](O)[C@]1(C)[C@@H]3C(=O)[C@H](OC(C)=O)[C@@]2(C)C(c3ccoc3)C[C@H]3O[C@@]312` (single isomer, unassigned), the Activity result was “tde” in the assay with Mythimna separata [1], 42.3% in the assay with Mythimna separata [2], 24.2% with Mythimna separata [3] and 26.9% with Mythimna separata [6]. Also, the outcome in the assay with Mythimna separata [7] was Active.
For the compound `CC(=O)O[C@@H]1C[C@H](O)[C@@]23CO[C@H](OC(=O)/C=C/c4ccccc4)[C@]1(C)[C@@H]2C[C@@H](O)[C@]1(C)[C@@H]3C(=O)[C@H](OC(C)=O)[C@@]2(C)C(c3ccoc3)C[C@H]3O[C@@]312` (single isomer, unassigned), the Activity entry is “tde” in the assay on Mythimna separata [1], 61.5% in the assay on Mythimna separata [2], 20.7% with Mythimna separata [3] and 38.5% in the assay on Mythimna separata [6]. Further, in the assay on Mythimna separata [5], the result was Active.
On to `CC(=O)O[C@@H]1C[C@H](O)[C@@]23CO[C@H](OC(=O)CCc4ccccc4)[C@]1(C)[C@@H]2C[C@@H](O)[C@]1(C)[C@@H]3C(=O)[C@H](OC(C)=O)[C@@]2(C)C(c3ccoc3)C[C@H]3O[C@@]312` (single isomer, unassigned), for which the Activity entry in the assay on Mythimna separata [1] is “tde”; in the assay with Mythimna separata [2], 53.9%; in the assay with Mythimna separata [3], 20.7%; with Mythimna separata [6], 30.8%. Besides, the result in the assay with Mythimna separata [7] was Active.
Turning to `CC(=O)O[C@@H]1C[C@H](O)[C@@]23CO[C@H](OC(=O)Cc4ccccc4)[C@]1(C)[C@@H]2C[C@@H](O)[C@]1(C)[C@@H]3C(=O)[C@H](OC(C)=O)[C@@]2(C)C(c3ccoc3)C[C@H]3O[C@@]312` (single isomer, unassigned), the Activity result in the assay with Mythimna separata [1] was “tde”; with Mythimna separata [2], 42.3%; in the assay with Mythimna separata [3] it was 24.1%; with Mythimna separata [6] it was 26.9%.
On the same counts, the results for `CC(=O)O[C@@H]1C[C@H](O)[C@@]23CO[C@@H](O)[C@]1(C)[C@@H]2C[C@@H](O)[C@]1(C)[C@@H]3C(=O)[C@H](OC(C)=O)[C@@]2(C)[C@H](c3ccoc3)C[C@H]3O[C@]321` [TOOSENDANIN] are “tde”, 50%, 24.1% and 30.8%.
